Experimental data published in US20230212638A1 (priority 2020, published 2023).

How the values were obtained:
Format in all cases: cell-based
[1] = tested on: NBRC12993 (Staphylococcus epidermidis control strain); test: Drug sensitivity of Staphylococcus epidermidis NBRC12993 by resonance frequency shift on GHz array sensor; conditions: PIPC 10.0 μg/mL
Source text: By using NBRC12993 being a control strain of Staphylococcus epidermidis, the inventors conducted verification experiments of growth and drug sensitivity of Staphylococcus epidermidis by the test method above.
In this experiment, piperacillin (penicillin) being a time-dependent drug was used. That is, this drug exerts an inhibitory action on growth by retaining the effective drug concentration for a certain period of time. A control sample of NBRC12993 was mixed with piperacillin (PIPC) to prepare a sample for drug sensitivity evaluation at a […] concentration of 10.0 μg/mL (PIPC 10.0 μg/mL). Further, in order to verify the frequency shift of a killed bacterium, a sample was prepared by subjecting 200 μL of a control sample to heat treatment at 98° C. for 30 minutes.
The samples thus prepared were introduced into different containers 60, respectively, and the frequency shift was measured for each sample. In this case, capping solvent 300 was not added into each container 60. The temperatures of an incubator and a Peltier element during the measurement were set in a similar manner to Example 1 above. In analysis processing, frequency shifts of all the 1488 elements on array sensor 10 were measured every 10 seconds, the average value of the measured frequency shifts was calculated every 5 minutes, and extracted as the frequency shift at each timing of the measurement. In addition to this, in Example 3, a region where the growth of Staphylococcus epidermidis was observed was designated on the display image, and the average value of the frequency shifts in this growth region was calculated every 5 minutes. […]
Further, FIG. 12(b) is a display image showing a frequency shift of each element by color when a control sample to which PIPC was not added was measured at the time point after the lapse of 240 minutes, and FIG. 12(c) is a display image showing a frequency shift of each element by color when a sample for drug sensitivity evaluation to which PIPC was added (PIPC 10.0 μg/mL) was measured at the time point after the lapse of 240 minutes. […]

[2] = tested on: BCG (Mycobacterium bovis); conditions: SM sample: 196 μL control sample + 4 μL SM at 25 mg/mL; 20 elements; 12 hours; 37° C.; FIG. 10(b)
[3] = tested on: NBRC3301 (Escherichia coli control strain); test: Drug sensitivity of Escherichia coli NBRC3301 by resonance frequency shift on GHz array sensor
Description: By using NBRC3301 as a control strain of Escherichia coli, the inventors conducted verification experiments of growth and drug sensitivity of Escherichia coli by the test method above.
In this experiment, streptomycin (aminoglycoside) being a concentration-dependent drug was used. 196 μL of a control sample of NBRC3301 was mixed with 4 μL of SM at a concentration of 25 mg/mL to prepare a sample for drug sensitivity evaluation at a SM concentration of 500 μg/mL (SM_500 μg/mL). Further, the amount of the SM to be added to the control sample was adjusted to prepare a sample for drug sensitivity evaluation at a SM concentration of 250 μg/mL (SM_250 μg/mL) and a sample for drug sensitivity evaluation at a SM concentration of 125 μg/mL (SM_125 μg/mL). Furthermore, in order to verify the frequency shift of a killed bacterium, a sample was prepared by subjecting 200 μL of a control sample to heat treatment at 98° C. for 30 minutes. […]
The samples thus prepared were introduced into different containers 60, respectively, and the frequency shift was measured for each sample. […] In analysis processing, frequency shifts of all the 1488 elements on array sensor 10 were measured every 10 seconds, the average value of the measured frequency shifts was calculated every 5 minutes, and extracted as the frequency shift at each timing of the measurement. […]

SMILES	increase in the frequency shift with the lapse of time ([1]; 240 minutes, no capping solvent, compared with heat-treated killed bacteria, FIG. 12(a))	time from start of measurement until which the frequency shift increased, decreasing trend thereafter (time-dependent action) ([1]; FIG. 12(a))	frequency shift of each element in display image ([1]; after the lapse of 240 minutes, FIG. 12(c))	growth of BCG reflected on the frequency shift of each element [2]	frequency shift of each element in display image ([3]; SM 500 μg/mL, after the lapse of 60 minutes, FIG. 11(c))	increase in the frequency shift with the lapse of time, compared with control sample ([3]; SM 500, 250 and 125 μg/mL, average of all 1488 elements, 60 minutes, no capping solvent, suppression greater at higher concentration, FIG. 11(a))
CCN1CCN(C(=O)N[C@@H](C(=O)N[C@@H]2C(=O)N3[C@@H]2SC(C)(C)[C@@H]3C(=O)O)c2ccccc2)C(=O)C1=O [PIPC, piperacillin]	the increase in the frequency shift was suppressed more than that in the case where heat treatment was performed	around 120 minutes	the frequency shifts of all the elements were uniformly suppressed low			
[H]/N=C(/N)N[C@H]1[C@H](O)[C@@H](O)[C@H](O[C@@H]2O[C@@H](C)[C@](O)(C=O)[C@H]2O[C@@H]2O[C@@H](CO)[C@H](O)[C@@H](O)[C@@H]2NC)[C@@H](N/C(N)=N\[H])[C@@H]1O [SM, streptomycin]				growth of BCG was suppressed	the frequency shifts of all the elements were uniformly suppressed low	the increase in the frequency shift was suppressed
